From US20230381270A1, “PHARMACEUTICAL COMBINATIONS FOR TREATING CANCER” (POLYPHOR AG, priority 2017, published 2023)
Read-outs that look alike come from different tables or passages of the source.

Tests used:
metastatic breast cancer = conditions: cited from earlier work
human CXCR4 receptor = human CXCR4 receptor (Homo sapiens, UniProt P61073); assay: In vitro receptor binding studies
Text: (§1) Cyclo(-Tyr-His-Ala-Cys-Ser-Ala-^DPro-Dab-Arg-Tyr-Cys-Tyr-Gln-Lys-^DPro-Pro-) having a disulfide bond between Cys4 and Cys11 is also referred as POL6326 herein or balixafortide. POL6326 is a cyclic synthetic peptide consisting of 16 amino acids and an antagonist of the highly conserved chemokine receptor CXCR4 and is being developed as an IV treatment in combination with chemotherapy in patients with leukemias (autologous transplantation).

[1] = system: other potential target receptors; assay: In vitro receptor binding studies, other receptors
Text: as §1

[2] = Phase I trial of eribulin + POL6326: safety and tolerability (adverse events); assay type: in vivo, human; conditions: balixafortide-related; most frequent during Day 1, Cycle 1
Text: This open-label, single-arm, non-randomised Phase I, dose escalation trial enrolled HER2-negative (any oestrogen or progesterone receptor status) females age […] years with histologically confirmed invasive breast cancer, stage IV disease (American Joint Committee on Cancer criteria), evidence of tumour cell CXCR4 expression by immunohistochemistry on tumour tissue (archival primary tumour, metastatic tissue, or from a fresh biopsy), and at least one measurable lesion according to Response Evaluation Criteria in Solid Tumours (RECIST) 1.1 criteria. Patients had previously received […] chemotherapy regimens for metastatic breast cancer (MBC). Patients with hormone receptor positive status must have failed at least one endocrine therapy or be considered unsuitable for endocrine therapy. Eligibility criteria also included an Eastern Cooperative Oncology Group performance status of 0 or 1. This phase I study investigates the combination of eribulin with POL6326 in relapsed metastatic breast cancer. The primary objectives are the safety, tolerability, and pharmacokinetics (PK) of this combination therapy, as well as the maximum tolerated dose (MTD) and recommended phase 2 dose (RP2D) of POL6326 when added to eribulin. Efficacy, as measured by tumor response, was additionally assessed.
Treatment cycles of 21 days each. […]

advanced cancer = conditions: monotherapy (Galsky 2014); cited from earlier work
[3] = Phase II study, eribulin alone (Cortes et al 2010)
[4] = Phase II study, eribulin alone (Vandat et al 2009)
[5] = relapsed mBC patients in 3rd line and beyond, published data

Sequence of human CXCR4 receptor (P61073 whole entry): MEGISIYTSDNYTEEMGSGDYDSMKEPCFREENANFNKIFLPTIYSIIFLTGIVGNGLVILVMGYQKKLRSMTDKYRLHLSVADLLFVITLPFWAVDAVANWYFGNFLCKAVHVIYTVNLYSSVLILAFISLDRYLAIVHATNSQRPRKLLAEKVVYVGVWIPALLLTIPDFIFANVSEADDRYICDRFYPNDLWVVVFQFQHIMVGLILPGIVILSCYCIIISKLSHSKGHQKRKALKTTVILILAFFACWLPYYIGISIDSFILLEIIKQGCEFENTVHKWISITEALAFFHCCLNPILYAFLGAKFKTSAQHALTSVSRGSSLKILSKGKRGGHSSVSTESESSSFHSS

Q: Which results are given for `C=C1C[C@@H]2CC[C@@]34C[C@H]5O[C@H]6[C@@H](O3)[C@H]3O[C@H](CC[C@@H]3O[C@H]6[C@H]5O4)CC(=O)C[C@@H]3[C@@H](OC)[C@@H](C[C@H](O)CN)O[C@H]3C[C@H]3O[C@@H](CC[C@@H]1O2)C[C@@H](C)C3=C` [eribulin, 2-(3-amino-2-hydroxypropyl)hexacosahydro-3-methoxy-26-methyl-20,27-bis(methylene)11,15-18,21-24,28-triepoxy-7,9-ethano-12,15-methano-9H,15H-furo (3,2-i)furo(2′,3′-5,6)pyrano (4,3-b)(1,4)dioxacyclopentacosin-5-(4H)-one]?
A: CBR (metastatic breast cancer; [3]): 17.1%; ORR (metastatic breast cancer; [3]): 9%; CBR (metastatic breast cancer; [4]): 17.2%; ORR (metastatic breast cancer; [4]): 11.5%; mPFS (metastatic breast cancer; eribulin alone, published trials recruiting similar patients): 2.6-4.1 months; One year OS (metastatic breast cancer; eribulin alone, reported): 53.9%; ORR (metastatic breast cancer; randomised Phase III trial (EMBRACE, Cortes 2011)): 12%; ORR (metastatic breast cancer; randomised Phase III trial (Kaufman 2015)): 11%; overall survival (OS) (metastatic breast cancer; [5]): 13.1 months; progression-free survival (PFS) (metastatic breast cancer; [5]): 3.7 months

Q: Which results are given for “Cyclo(-Tyr-His-Ala-Cys-Ser-Ala-^DPro-Dab-Arg-Tyr-Cys-Tyr-Gln-Lys-^DPro-Pro-) having a disulfide bond between Cys4 and Cys11 [POL6326]”?
A: affinity for the human CXCR4 receptor (human CXCR4 receptor): significant affinity; binding to other potential target receptors [1]: general lack of significant binding; infusion-related reactions (IRRs) [2]: the majority were low grade

Q: Which DLT (advanced cancer) does the source give for LY2510924 here?
A: The DLT was “abnormal neutrophil count”.
